Experiments:
Neuraminidase = Neuraminidase (Influenza A virus, UniProt B4URF0)
[1] = Inhibition of influenza virus A/WSN/1933 (H1N1) neuraminidase using MUNANA as substrate preincubated for 10 mins followed by substrate addition and measured for 15 mins by fluorescence assay; set-up: species or system Influenza A virus ([…])

Sequence of Neuraminidase (B4URF0 whole entry): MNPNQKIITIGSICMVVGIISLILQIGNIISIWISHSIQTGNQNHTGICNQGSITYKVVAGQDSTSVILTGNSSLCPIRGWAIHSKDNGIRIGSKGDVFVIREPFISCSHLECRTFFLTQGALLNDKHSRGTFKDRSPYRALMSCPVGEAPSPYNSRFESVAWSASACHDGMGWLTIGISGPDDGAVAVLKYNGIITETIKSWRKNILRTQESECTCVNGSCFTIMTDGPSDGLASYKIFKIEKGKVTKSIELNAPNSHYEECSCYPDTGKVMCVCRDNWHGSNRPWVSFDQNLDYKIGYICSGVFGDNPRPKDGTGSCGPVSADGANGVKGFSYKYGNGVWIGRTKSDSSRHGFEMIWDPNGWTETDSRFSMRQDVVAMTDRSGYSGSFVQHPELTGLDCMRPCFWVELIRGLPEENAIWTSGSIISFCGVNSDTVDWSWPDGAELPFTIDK

O=C(NCCCN1CCOCC1)C(=O)N/N=C/c1ccccc1O
IC50 (Neuraminidase): 6.48 µM

CC(=O)N[C@H]1[C@H]([C@H](O)[C@H](O)CO)OC(P(=O)(O)O)=C[C@@H]1NC(=N)N
IC50 [1]: 0.0006 µM

COc1cc(/C=N/NC(=O)C(=O)NCCCN2CCOCC2)ccc1O
IC50 (Neuraminidase): 4.67 µM

O=C(NCCCN1CCOCC1)C(=O)N/N=C/c1ccc(O)c([N+](=O)[O-])c1
IC50 (Neuraminidase): 4.37 µM

COc1ccccc1/C=N/NC(=O)C(=O)NCCCN1CCOCC1
IC50 (Neuraminidase): 7.1 µM

COc1cc(/C=N/NC(=O)C(=O)NCCCN2CCOCC2)cc(OC)c1OC
IC50 (Neuraminidase): 2.61 µM

COc1ccc(/C=N/NC(=O)C(=O)NCCCN2CCOCC2)cc1OC
IC50 (Neuraminidase): 2.37 µM

COc1cc(/C=N/NC(=O)C(=O)NCCCN2CCOCC2)cc(OC)c1O
IC50 (Neuraminidase): 3.15 µM
